The test concerns the target T1, telomerase (Homo sapiens, UniProt O14746).
T1 construct: cells, tissues, or preferably a cellular extract or other preparation containing telomerase; endogenous in cells
Nature of the test: Telomerase inhibition (IC50) with cellular extract or other preparation containing telomerase. It counts as biochemical. The source says:
One method used to identify compounds of the invention that inhibit telomerase activity involves placing cells, tissues, or preferably a cellular extract or other preparation containing telomerase in contact with several known concentrations of a test compound in a buffer compatible with telomerase activity. […] Other methods for determining the inhibitory concentration of a compound of the invention against telomerase can be employed as will be apparent to those of skill in the art based on the disclosure herein.
With the above-described methods, IC50 values for several of the compounds of the present invention were determined. The values reported in Table 1 below are only approximate values; more exact IC50 values can be obtained by repetitive testing.

The mark [1] stands for this setting: approximate values, read-out: IC50.

Each structure is given as a SMILES string. “And” between values parts separate entries of the source, which are not always exact repeats. Identical values can stand only once. Like-named read-outs stand apart in the source and are kept apart here.

T1 sequence (O14746 whole entry): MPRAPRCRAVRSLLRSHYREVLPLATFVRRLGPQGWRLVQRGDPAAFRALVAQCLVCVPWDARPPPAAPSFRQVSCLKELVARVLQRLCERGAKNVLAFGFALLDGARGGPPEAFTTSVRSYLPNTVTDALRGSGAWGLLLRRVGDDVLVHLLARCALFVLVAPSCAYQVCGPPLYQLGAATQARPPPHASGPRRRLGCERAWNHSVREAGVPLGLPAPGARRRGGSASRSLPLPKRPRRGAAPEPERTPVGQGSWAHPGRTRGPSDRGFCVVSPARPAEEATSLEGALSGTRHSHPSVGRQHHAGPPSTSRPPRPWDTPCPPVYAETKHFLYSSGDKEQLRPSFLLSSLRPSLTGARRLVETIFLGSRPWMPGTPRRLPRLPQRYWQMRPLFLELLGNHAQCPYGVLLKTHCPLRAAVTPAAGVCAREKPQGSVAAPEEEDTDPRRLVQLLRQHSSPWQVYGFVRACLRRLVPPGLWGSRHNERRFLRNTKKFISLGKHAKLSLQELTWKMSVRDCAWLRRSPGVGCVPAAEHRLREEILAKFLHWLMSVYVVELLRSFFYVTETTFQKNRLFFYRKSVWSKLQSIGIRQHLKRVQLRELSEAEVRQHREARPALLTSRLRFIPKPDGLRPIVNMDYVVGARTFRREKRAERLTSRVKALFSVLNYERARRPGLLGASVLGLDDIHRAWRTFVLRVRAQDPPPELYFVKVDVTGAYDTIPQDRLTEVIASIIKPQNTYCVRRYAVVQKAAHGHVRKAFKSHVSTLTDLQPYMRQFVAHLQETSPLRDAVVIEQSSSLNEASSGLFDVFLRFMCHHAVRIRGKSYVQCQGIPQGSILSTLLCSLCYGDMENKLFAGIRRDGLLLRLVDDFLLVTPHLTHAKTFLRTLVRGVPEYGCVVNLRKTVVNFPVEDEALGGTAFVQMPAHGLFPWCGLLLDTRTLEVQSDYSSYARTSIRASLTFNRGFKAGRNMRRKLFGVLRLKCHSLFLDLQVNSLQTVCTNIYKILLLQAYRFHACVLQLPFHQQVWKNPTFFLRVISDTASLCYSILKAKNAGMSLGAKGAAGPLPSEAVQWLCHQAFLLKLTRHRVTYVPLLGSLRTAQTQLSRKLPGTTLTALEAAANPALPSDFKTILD
T1 sequence (O60832 whole entry partner): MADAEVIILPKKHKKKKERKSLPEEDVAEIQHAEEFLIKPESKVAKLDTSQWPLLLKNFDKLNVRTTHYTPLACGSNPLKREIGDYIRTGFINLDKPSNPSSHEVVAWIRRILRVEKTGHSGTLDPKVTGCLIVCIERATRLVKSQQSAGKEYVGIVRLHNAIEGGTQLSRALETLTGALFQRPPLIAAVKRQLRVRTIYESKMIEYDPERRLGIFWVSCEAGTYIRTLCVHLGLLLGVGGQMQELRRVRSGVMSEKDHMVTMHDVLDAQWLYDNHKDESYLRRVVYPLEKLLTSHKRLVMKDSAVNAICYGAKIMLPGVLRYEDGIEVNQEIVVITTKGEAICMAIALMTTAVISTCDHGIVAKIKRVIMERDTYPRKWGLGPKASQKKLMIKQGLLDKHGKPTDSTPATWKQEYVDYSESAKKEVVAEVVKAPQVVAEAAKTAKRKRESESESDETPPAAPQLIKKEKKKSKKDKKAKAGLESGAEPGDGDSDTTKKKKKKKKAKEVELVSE
T1 sequence (Q9NPE3 whole entry partner): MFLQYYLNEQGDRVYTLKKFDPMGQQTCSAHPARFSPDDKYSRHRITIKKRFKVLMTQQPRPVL
T1 sequence (Q9NX24 whole entry partner): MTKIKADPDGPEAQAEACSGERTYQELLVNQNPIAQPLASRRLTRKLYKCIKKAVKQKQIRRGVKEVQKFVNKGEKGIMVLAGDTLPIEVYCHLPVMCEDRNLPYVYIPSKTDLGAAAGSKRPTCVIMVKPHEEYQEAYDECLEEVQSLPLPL
T1 sequence (Q9NY12 whole entry partner): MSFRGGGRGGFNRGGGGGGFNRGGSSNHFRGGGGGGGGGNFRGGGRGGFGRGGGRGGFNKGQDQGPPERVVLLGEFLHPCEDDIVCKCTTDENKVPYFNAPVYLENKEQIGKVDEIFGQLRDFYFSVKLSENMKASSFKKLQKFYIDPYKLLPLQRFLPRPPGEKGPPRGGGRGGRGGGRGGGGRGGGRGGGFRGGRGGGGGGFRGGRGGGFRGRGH

Take `Cc1ccc(Sc2ccccc2NC(=S)NNC(=O)c2cc3cc(NC(=S)Nc4ccccc4Sc4ccc(C)cc4)ccc3s2)cc1` [Compound III]: the “anti-telomerase activity (in words)” value is reported as “useful telomerase-inhibiting properties”. Moreover, under setting [1], the IC50 is 12 µM. Turning to `Cc1ccc(NC(=S)Nc2ccc3sc(C(=O)NNC(=S)Nc4cc(Cl)ccc4Cl)cc3c2)cc1` [Compound II], the “anti-telomerase activity (in words)” value was “good anti-telomerase activity”. Also, the 50% inhibitory concentration (IC50) under setting [1] came to 6 µM. For `Cc1cccc(NC(=S)Nc2ccc3sc(C(=O)NNC(=S)Nc4cc(C(F)(F)F)cc(C(F)(F)F)c4)cc3c2)c1` [Compound IV], in that order: “useful telomerase-inhibiting properties” and 23.4 µM. Regarding `O=C(NNC(=S)Nc1cc(Cl)ccc1Cl)c1cc2ccccc2s1` [Compound VII], the IC50 under setting [1] stood at 10 µM. For `CSc1ccc(NC(=S)NNC(=O)c2cc3cc(NC(=S)Nc4cccc(C)c4)ccc3s2)cc1` [Compound VI], the “anti-telomerase activity (in words)” value is listed as “useful telomerase-inhibiting properties”. Also, the IC50 under setting [1] was found to be 6.4 µM. For `Cc1ccc(Sc2ccccc2NC(=S)NNC(=O)c2cc3cc(NC(=S)Nc4cccc(C)c4)ccc3s2)cc1` [Compound V], in that order: “useful telomerase-inhibiting properties” and 9.7 µM. Consider `O=C(NNC(=S)Nc1cc(Br)ccc1Br)c1cc2c(Cl)cccc2s1` [Compound XIII], for which, under setting [1], the IC50 worked out at 9 µM.

Regarding `O=C(NNC(=S)Nc1cc(Cl)c(Cl)c(Cl)c1Cl)c1cc2c(Cl)cccc2s1` [Compound XII], under setting [1], the IC50 was found to be 7 µM.

As to `O=C(NNC(=S)Nc1ccc(Cl)c(Cl)c1Cl)c1cc2c(Cl)cccc2s1` [Compound XIV], the IC50 under setting [1] stood at 9 µM. In the case of `O=C(NNC(=S)Nc1cc(Cl)c(Cl)c(Cl)c1Cl)c1sc2ccccc2c1Cl` [Compound XIX], the “anti-telomerase activity (in words)” value is reported as “useful anti-telomerase properties”. Besides, the IC50 under setting [1] turned out to be 8 µM.

As to `O=C(NNC(=S)Nc1cc(Cl)c(Cl)cc1Cl)c1cc2c(Cl)cccc2s1` [Compound XI], under setting [1], the half-inhibitory concentration (IC50) stood at 10 µM. Still for that read-out and setting: the value for `O=C(NNC(=S)Nc1ccc(Cl)cc1)c1sc2ccc(Cl)c(Cl)c2c1Cl` [Compound XLI] was 8 µM.

Take `O=C(NNC(=S)Nc1c(Cl)cc(Cl)cc1Cl)c1sc2ccc(Cl)c(Cl)c2c1Cl` [Compound XL]: under setting [1], the IC50 is 14 µM.

For the molecule `COc1ccc2c(Cl)c(C(=O)NNC(=S)Nc3cc(Cl)c(Cl)c(Cl)c3Cl)sc2c1Cl` [Compound XVIII], the IC50 under setting [1] was found to be 15 µM. The same measure, in the same setting: the value for `COc1ccc2c(Cl)c(C(=O)NNC(=S)Nc3cc(Cl)c(Cl)cc3Cl)sc2c1Cl` [Compound XVII] was 9 µM; that for `O=C(NNC(=S)Nc1ccc(Sc2ccc([N+](=O)[O-])cc2)cc1)c1cc2c(F)cccc2s1` [Compound XVI] was 6 µM. For `Cc1ccc(Sc2ccccc2NC(=S)NNC(=O)c2cc3c(Cl)cccc3s2)cc1` [Compound XV], the IC50 under setting [1] was 9 µM. Still for that read-out and setting: the value for `Cc1ccc2c(Cl)c(C(=O)NNC(=S)Nc3cccc(Cl)c3Cl)sc2c1` [Compound XXIII] was 10 µM. Consider `COc1ccc2c(Cl)c(C(=O)NNC(=S)Nc3ccc(Cl)c(Cl)c3Cl)sc2c1` [Compound XXII], for which the “anti-telomerase activity (in words)” value was “useful telomerase-inhibiting properties”. In addition, the half-maximal inhibitory concentration (IC50) under setting [1] amounted to 8 µM. `O=C(NNC(=S)Nc1cc(Cl)c(Cl)cc1Cl)c1sc2cc(-c3ccccc3)ccc2c1Cl` [Compound XXIV]: the IC50 under setting [1] stood at 8 µM. Consider `O=C(NNC(=S)Nc1c(Cl)cc(Cl)cc1Cl)c1sc2cc(-c3ccccc3)ccc2c1Cl` [Compound XXIX], for which, under setting [1], the IC50 was 7 µM.

As to `COc1ccc2c(Cl)c(C(=O)NNC(=S)Nc3cc(Cl)c(Cl)c(Cl)c3Cl)sc2c1` [Compound XXI], the “anti-telomerase activity (in words)” value is “useful telomerase-inhibiting properties”. The IC50 under setting [1] was found to be 5 µM.

With `O=C(NNC(=S)Nc1cc(Br)ccc1Br)c1sc2cc(-c3ccccc3)ccc2c1Cl` [Compound XXVIII], the half-maximal inhibitory concentration (IC50) under setting [1] was 9 µM. Take `O=C(NNC(=S)Nc1cc(Cl)ccc1Cl)c1sc2cc(-c3ccccc3)ccc2c1Cl` [Compound XXVII]: the IC50 under setting [1] was determined as 6 µM.

As to `O=C(NNC(=S)Nc1cccc(Cl)c1Cl)c1sc2cc(-c3ccccc3)ccc2c1Cl` [Compound XXVI], the IC50 under setting [1] turned out to be 6 µM. As for `O=C(NNC(=S)Nc1cc(Cl)c(Cl)c(Cl)c1Cl)c1sc2cc(-c3ccccc3)ccc2c1Cl` [Compound XXV], the IC50 under setting [1] is 10 µM. Still for that read-out and setting: the value for `O=C(NNC(=S)Nc1cc(Cl)ccc1Cl)c1sc2ccc(Cl)c(Cl)c2c1Cl` [Compound XXXIII] was 7 µM; that for `O=C(NNC(=S)Nc1ccc(Cl)cc1Cl)c1sc2ccc(Cl)c(Cl)c2c1Cl` [Compound XXXII] was 7 µM.

As to `O=C(NNC(=S)Nc1ccc(Cl)c(Cl)c1Cl)c1sc2ccc(Cl)c(Cl)c2c1Cl` [Compound XXXIV], the IC50 under setting [1] was 6 µM. `O=C(NNC(=S)Nc1cc(Cl)c(Cl)cc1Cl)c1sc2ccc(Cl)c(Cl)c2c1Cl` [Compound XXXIX]: under setting [1], the IC50 was 5 µM and ≤ 5 µM.

With `O=C(NNC(=S)Nc1cccc(Cl)c1Cl)c1sc2ccc(Cl)c(Cl)c2c1Cl` [Compound XXXI], the IC50 under setting [1] is 5 µM and ≤ 5 µM.

With `O=C(NNC(=S)Nc1ccc2ccccc2c1)c1sc2ccc(Cl)c(Cl)c2c1Cl` [Compound XXXVIII], the half-inhibitory concentration (IC50) under setting [1] was 5 µM and ≤ 5 µM. Still for that read-out and setting: the value for `Cc1ccc(Sc2ccccc2NC(=S)NNC(=O)c2sc3ccc(Cl)c(Cl)c3c2Cl)cc1` [Compound XXXVII] was 7 µM; that for `O=C(NNC(=S)Nc1cc(C(F)(F)F)cc(C(F)(F)F)c1)c1sc2ccc(Cl)c(Cl)c2c1Cl` [Compound XXXVI] was 8 µM; that for `O=C(NNC(=S)Nc1cc(Br)ccc1Br)c1sc2ccc(Cl)c(Cl)c2c1Cl` [Compound XXXV] was 6 µM. On to `O=C(NNC(=S)Nc1cc(Cl)c(Cl)c(Cl)c1Cl)c1sc2ccc(Cl)c(Cl)c2c1Cl` [Compound XXX], for which the IC50 under setting [1] is 5 µM and ≤ 5 µM. Take `COc1ccc2c(Cl)c(C(=O)NNC(=S)Nc3cc(Cl)c(Cl)cc3Cl)sc2c1` [Compound XX]: the “anti-telomerase activity (in words)” value is given as “useful telomerase-inhibiting properties”. In addition, the IC50 under setting [1] is 9 µM. In the case of `Cc1ccc(Sc2ccccc2NC(=S)NNC(=O)c2cc3cccc(F)c3s2)cc1` [Compound X], under setting [1], the half-inhibitory concentration (IC50) came out at 6 µM.

In the case of `O=C(NNC(=S)Nc1cc(Cl)c(Cl)c(Cl)c1Cl)c1cc2cccc(F)c2s1` [IX], the IC50 under setting [1] was 5 µM and ≤ 5 µM. `O=C(NNC(=S)Nc1cc(Cl)c(Cl)cc1Cl)c1cc2cccc(F)c2s1` [VIII]: under “IC50, approximate values”, 7 µM corresponded to half-maximal inhibition (IC50).

As usually defined, the IC50 is the concentration needed to halve the response being measured.

The values above are taken from US5863936A, “Telomerase inhibitors” (Geron Corporation, priority 1995, dated 1999).
